Read-outs that look alike come from different tables or passages of the source.
How the values were obtained:
[1] = Gel frontal migration assay with serum; type: physicochemical; conditions: 3 mg/ml pectin with 0.0039% or 0.0078% calcium chloride on normal calf serum
From the text: Body fluids such as blood, lacrimal fluid, lung fluid and nasal secretions contain calcium ions ([…] in blood, for example). Since Aloe pectin forms calcium gel, the role of calcium in the in-situ gelation of Aloe pectin was examined using an in vitro gelling assay with animal serum that simulates in-situ gel formation. This in vitro assay is described as a gel frontal migration assay. Animal serum was placed at the bottom of a glass tube and the Aloe pectin solution was layered on top of the serum (the pectin solution may also be placed at the bottom of the tube dependent on the density of the test solution in relation to the pectin solution). Tissue culture grade normal calf serum was used. […]
Gel formation was immediate at the contact line (interface of the solutions) and the gel phase or gel front gradually extended upward in the pectin solution over time. […] The thickness of the gel formed at the interface can be measured over time (such measurements are referred to as “gel length” hereinbelow).
The gel frontal migration assay described above was used. […] After 18 hrs at room temperature, the length of gels formed (i.e. gel thickness) was measured. […]
The gel frontal migration assay described above was used. […] The length of gels formed was measured 18 hrs later. […]

[2] = Gelation of HMW Aloe pectin solution on mixing with divalent cation salts; type: physicochemical; design: key: + indicates whole gel formation; ± partial gel formation; − no gel formation and solution remains clear and homogenous
Description: A 0.6% (w/v) HMW Aloe pectin solution in water was mixed with calcium chloride dihydrate solutions at various concentrations, at an 1:1 ratio (1 ml to 1 ml) to achieve a final polymer concentration of 0.3% (w/v) and a final calcium chloride dihydrate concentration from 0.0019-0.5% (w/v). The mixtures were immediately vortexed together, then the tubes were kept at room temperature and observed over time.

[3] = tested on: cells surrounding the gel; assay: Local delivery of bFGF by Aloe pectin in-situ gel; type: in vivo, mice
From the text: For growth factors to exert local effect on tissues surrounding the administration site, they need to be delivered in a matrix to allow them to be released in a slow or sustained manner. A delivery in saline or buffer alone is not effective in this regard. In this example, a growth factor (bFGF) was used. bFGF (basic fibroblast growth factor or FGF-2) is a growth factor known to stimulate fibroblast proliferation and angiogenesis or blood vessel formation. It was mixed with Aloe pectin (0.5%, w/v) in physiological saline at a concentration of 1-10 μg/ml and then injected subcutaneously into the lower left or right side of abdominal region of mice. One side received the control (pectin alone), and the other side received the bFGF-containing preparation. The in-situ gels from two mice were harvested along with skin at days 5-10 and subjected to fixation in formalin, sectioning, and H&E staining. Two identical areas, at either end of the gel, vertically between the gel surface and the skin muscle layer and horizontally 510 μm inward from the lateral end of the gel were selected, and the cells in these two selected areas from each gel were numerated using the NIH image software.

[4] = 0.3% (w/v) HMW Aloe pectin, salt 0 % w/v final
[5] = 0.3% (w/v) HMW Aloe pectin, salt 0.0019 % w/v final
[6] = 0.3% (w/v) HMW Aloe pectin, salt 0.0039 % w/v final
[7] = 0.3% (w/v) HMW Aloe pectin, salt 0.0156 % w/v final
[8] = 0.3% (w/v) HMW Aloe pectin, salt 0.0313 % w/v final
[9] = 0.3% (w/v) HMW Aloe pectin, salt 0.0625 % w/v final
[10] = 0.3% (w/v) HMW Aloe pectin, salt 0.125 % w/v final
[11] = 0.3% (w/v) HMW Aloe pectin, salt 0.25 % w/v final
[12] = 0.3% (w/v) HMW Aloe pectin, salt 0.5 % w/v final

Compound: O.O.[Ca+2].[Cl-].[Cl-] [CaCl2•2H2O, calcium chloride dihydrate]
- Gel formation versus control without added calcium chloride [1]: gel formation increased
- Gel formation on mixing with HMW Aloe pectin [2]: −
- Gel formation on mixing with HMW Aloe pectin [2, 4]: −
- Gel formation on mixing with HMW Aloe pectin [2, 5]: −
- Gel formation on mixing with HMW Aloe pectin [2, 6]: −
- Gel formation on mixing with HMW Aloe pectin [2, 7]: ±
- Gel formation on mixing with HMW Aloe pectin [2, 8]: +
- Gel formation on mixing with HMW Aloe pectin [2, 9]: +
- Gel formation on mixing with HMW Aloe pectin [2, 10]: +
- Gel formation on mixing with HMW Aloe pectin [2, 11]: +
- Gel formation on mixing with HMW Aloe pectin [2, 12]: +

Compound: [Cl-].[Cl-].[Zn+2] [ZnCl2, zinc chloride]
- Gel formation on mixing with HMW Aloe pectin [2, 4]: −
- Gel formation on mixing with HMW Aloe pectin [2, 5]: −
- Gel formation on mixing with HMW Aloe pectin [2, 6]: −
- Gel formation on mixing with HMW Aloe pectin ([2]; 0.3% (w/v) HMW Aloe pectin, salt 0.0078 % w/v final): −
- Gel formation on mixing with HMW Aloe pectin [2, 7]: ±
- Gel formation on mixing with HMW Aloe pectin [2, 8]: +
- Gel formation on mixing with HMW Aloe pectin [2, 9]: +
- Gel formation on mixing with HMW Aloe pectin [2, 10]: +
- Gel formation on mixing with HMW Aloe pectin [2, 11]: +
- Gel formation on mixing with HMW Aloe pectin [2, 12]: +

Compound: bFGF: basic fibroblast growth factor (FGF-2), delivered in 0.5% Aloe pectin in physiological saline
- Blood vessel formation surrounding the gel ([3]; bFGF 10 μg/ml): increase in blood vessel formation
- Cell number in bFGF-treated relative to the control (pectin alone) ([3]; bFGF 1-10 μg/ml in 0.5% Aloe pectin, subcutaneous, days 5-10): more than 2 times

From US7494669B2, “Delivery of physiological agents with in-situ gels comprising anionic polysaccharides” (priority 2001, dated 2009)
